# Laboratory results taken from article PMC10998878, “Inhibition of acyl-CoA binding protein (ACBP) by means of a GABAARγ2-derived peptide” (Cell Death & Disease, 2024).
# “Also recorded” adds a separate entry of the source.
# Tests used:
# [1] = target: T1, recombinant murine ACBP/DBI (Mus musculus, UniProt P31786); assay: Surface plasmon resonance (Biacore 2000) real time interaction analysis; format: binding; conditions: for interaction with recombinant ACBP/DBI, in words: surface plasmon resonance, HBS-EP pH 7.4, 25 °C, 10 µM and 100 µM peptide
# T1 construct: biotin (biotinylated); purchased Institute of Psychiatry and Neuroscience of Paris, France
# T1 sequence (P31786 1-87): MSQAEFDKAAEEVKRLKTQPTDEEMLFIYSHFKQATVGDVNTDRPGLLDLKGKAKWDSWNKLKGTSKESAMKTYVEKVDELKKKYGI
# Method: Kinetics of interaction of recombinant murine ACBP/DBI (Institute of Psychiatry and Neuroscience of Paris, France) with GABAARγ2 -derived eicosapeptide or its mutated derivative (synthesized by Biosynth ltd) was analyzed by surface plasmon resonance-based biosensor system – Biacore 2000 (Cytiva Life Sciences, Biacore, Uppsala, Sweden). SA sensor chip (Cytiva Life Sciences, Biacore) was activated by three consequent injections of 1 M NaCl, 0.05 M NaOH solution. After washing the sensor chip surface, biotinylated ACBP/DBI was immobilized on it. ACBP was diluted in HBS-EP buffer (10 mM HEPES […], 150 mM NaCl, 3 mM EDTA, and 0.005% Tween-20) at final concentration of 10 µg/mL and injected for 5 min contact time. The achieved immobilization density of ACBP was 1600 resonance units.
# All analyses were performed in HBS-EP buffer (0.01 M HEPES pH 7.4, 0.15 M NaCl, 3 mM EDTA, 0.005% v/v Surfactant P20; 0.22 µm filtered and degassed). The system was run at flow rate of 30 μL/min. The temperature on chip surface was set to 25 °C. GABAARγ2-derived eicosapeptide or its mutated derivative (both stocked in DMSO at 1 mg/mL) were diluted in HBS-EP to 10 µM and 100 µM. The peptides were injected over immobilized ACBP/DBI and a control surface (streptavidin alone). The association and dissociation phases of the interaction were followed for 4 and 5 min, respectively. The interaction of peptides with ACBP/DBI was assessed by monitoring the dissociation from the immobilized protein. For visualization of the binding response Graph Pad Prism software was used.
# [2] = tested on: GFP-LC3-expressing hepatocytes; assay: Hepatocyte autophagy activation (GFP-LC3 dots); format: cell-based; conditions: GFP-LC3 mouse hepatocytes, peptide 10 µg/mL, with leupeptin
# Method: […] Leupeptin (100 μM) was added 4 h before fixation. Cells were stained with Hoechst 33342 solution (Thermo Scientific™, #62249, 1 µg/mL) and fixed with 4% paraformaldehyde (PFA) solution. Both blue (Hoechst-derived) and green (GFP-LC3-derived) fluorescence were imaged using a Zeiss LSM 710 confocal microscope. Images were analyzed using R software.
# Hepatocytes were isolated from 4 transgenic mice expressing microtubule- associated proteins 1A/1B light chain 3B (hereafter referred to as LC3) fused to green fluorescent protein (GFP) (resulting fusion protein: LC3-GFP) under a ubiquitous promoter. Such oligo- or monocellular hepatocyte suspensions were cultured in the continuous presence of leupeptin at 37°C in the absence (A) or presence (B) of the GABAARγ2- EP- WT […]
# Cells were counterstained with Hoechst
# 33342 and representative fluorescence images are shown (bar size: 10 µm). The number of LC3-GFP+ dots per cells (defined as an area of interest around the 1 or 2 Hoechst 33342- positive nuclei per cell) were determined by image analysis and plotted in C .
# Results are shown as means ± standards of the mean, and statistics were calculated with […]
# [3] = tested on: liver autophagy, C57BL/6 mice; assay: Liver autophagy activation in vivo (LC3 lipidation); set-up: species or system mouse; conditions: C57BL/6 male mice, peptide 5 mg/kg i.v. 4 h and 30 min before sacrifice, with or without leupeptin 30 mg/kg i.p., LC3 immunoblot, n = 5
# Method: Ten-week-old C57BL/6 male mice were injected with GABAARγ2 peptides (5 mg/kg, i.v., dissolved in PBS) 4 h and 30 min before sacrifice. For inhibition of the autophagy flux, leupeptin (Leu, 30 mg/kg B.W., dissolved in PBS) was injected 2 h before sacrifice via an intraperitoneal (i.p.) injection. Control animals were i.v. injected with the vehicle (DMSO, 0.01%) and i.p. injected with PBS. All animals were sacrificed, and livers were snap-frozen in liquid nitrogen and stored at −80 °C.
# Protein lysates were prepared from liver, epididymal white adipose tissue (eWAT), brown adipose tissue (BAT), muscle, heart or Hep55.1c cells. Immunoblot analysis was performed for GABAARγ2 (Abcam #ab87328), mouse ACBP/DBI (Abcam, #ab231910), Human ACBP (Santa-Cruz #sc-376853), MAP1LC3B (#2775, Cell Signaling Technologies), and β-actin (Abcam, #ab49900), as previously described..
# C57BL/6 mice = assay: Concanavalin A-induced acute liver injury; format: in vivo, mouse; conditions: C57BL/6 male mice, peptide 5 mg/kg i.v. 90 min before concanavalin A 12 mg/kg i.v.
# Method: GABAARγ2 peptides (5 mg/kg, i.v., dissolved in DMSO) were injected in 12-week-old C57BL/6 male mice 90 min before the injection of 12 mg/kg Concanavalin A (ConA, i.v., Sigma Aldrich, # C5275).
# Fig. 7 In vivo inhibition of ACBP/DBI function by the GABAARγ2-derived eicosapeptide. A, B Appetite stimulation by ACBP/DBI. RecACBP/DBI alone or combined with GABAARγ2-derived eicosapeptides (EP) (WT or F77I) was administered in vivo by intravenous (i.v.) injection and individual cumulative food intake was measured after 30 min. GABAARγ2 peptides are represented as blue stars, while murine RecACBP/DBI is represented as red circles (A). […] C, D Immunoblots and densitometric quantification of LC3 lipidation in liver tissues from mice treated with GABAARγ2-derived eicosapeptides (EP) WT with or without the autophagy flux inhibitor leupeptin (n = 5 mice per group). p values were calculated by unpaired one-tailed Student’s t-test. E–G Inhibition of concanavalin A hepatotoxicity. GABAARγ2 WT peptide (or negative vehicle) was i.v. injected to C57BL/6 male mice followed by concanavalin A (or negative vehicle) administration 1.5 h later (E). Alanine transaminase (ALT) (F) and aspartate transaminase (AST) (G) activity in plasma was analyzed by means of a colorimetric assay (n = 7–9 mice per condition). p values were calculated by unpaired one-tailed Student’s t-test. ns: non-significant. Unt: Untreated.
# [4] = listed as GABAARγ2-derived eicosapeptide
sequence,measurement,setting,value
INMEYTIDIFFAQTWYDRRL [GABAARγ2-EP-WT],association with immobilized ACBP/DBI (SPR),"[1]; biotinylated recombinant ACBP/DBI on SA chip (1600 RU), peptide 10 µM and 100 µM in HBS-EP, pH 7.4, 25 °C, 30 μL/min, association 4 min, WT vs F77I",associated more rapidly
same,dissociation from immobilized ACBP/DBI (SPR),"[1]; biotinylated recombinant ACBP/DBI on SA chip (1600 RU), peptide 10 µM and 100 µM in HBS-EP, pH 7.4, 25 °C, 30 μL/min, dissociation 5 min, WT vs F77I",dissociated more slowly from ACBP/DBI than GABAARγ2-EP-F77I
same,"interaction with recombinant ACBP/DBI, in words",[1],efficiently interacts with native and recombinant ACBP/DBI; also recorded: able to interact with ACBP/DBI
same,"interaction with recombinant ACBP/DBI, in words",[1]; [4],validated the interaction
same,capacity to enhance autophagic flux,[2],enhance autophagic flux
same,number of LC3-GFP dots per cell,[2]; confocal microscopy,increased the number of LC3-GFP dots
same,activation of autophagy in the liver,[3],activation of autophagy in the liver was induced
same,activation of autophagy in the liver,[3]; [4],induced autophagy in the liver
same,"protection against concanavalin A hepatotoxicity, in words",C57BL/6 mice,attenuate acute hepatotoxicity induced by concanavalin A
same,plasma alanine aminotransferase (ALT) after concanavalin A,C57BL/6 mice; n = 7–9,significantly blunted the surge
same,plasma aspartate aminotransferase (AST) after concanavalin A,C57BL/6 mice; n = 7–9,significantly blunted the surge
same,"protection against concanavalin A hepatotoxicity, in words",C57BL/6 mice; [4],protected mice against the hepatotoxin concanavalin A
